Reference: PubChem BioAssay AID1963830 (Molecular Pharmacology Branch, DTP, NCI, 2024)

System: 922993-354-T-J3-PDC complex spheroid viability
Assay: Anticancer human tumor 922993-354-T-J3-PDC patient-derived endometrial carcinoma cell line growth inhibition [POLQ]
Details: for IC50: curve of first compound; for viability, T/C: stronger effect = lower value
Method in brief: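 Complex spheroid viability model combining PDC tumour cells with endothelial (HUVEC) and MSC stromal cells. Novobiocin, ART-558 or RP6685 were tested singly and in combination with standard and investigational anticancer drugs. Each was titrated in half-log steps from near clinical Cmax, or from 10 microM where Cmax was unknown.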

[1] = second compound 0.0316 µM, first compound 0.0316 µM
[2] = second compound 0.0316 µM, first compound 0.1 µM
[3] = second compound 0.0316 µM, first compound 0.316 µM
[4] = second compound 0.0316 µM, first compound 1 µM
[5] = second compound 0.0316 µM, first compound 3.16 µM
[6] = second compound 0.0316 µM, first compound 10 µM
[7] = second compound 0.1 µM, first compound 0.0316 µM
[8] = second compound 0.1 µM, first compound 0.1 µM
[9] = second compound 0.1 µM, first compound 0.316 µM
[10] = second compound 0.1 µM, first compound 1 µM
[11] = second compound 0.1 µM, first compound 3.16 µM
[12] = second compound 0.1 µM, first compound 10 µM
[13] = second compound 0.316 µM, first compound 0.0316 µM
[14] = second compound 0.316 µM, first compound 0.1 µM
[15] = second compound 0.316 µM, first compound 0.316 µM
[16] = second compound 0.316 µM, first compound 1 µM
[17] = second compound 0.316 µM, first compound 3.16 µM
[18] = second compound 0.316 µM, first compound 10 µM
[19] = second compound 1 µM, first compound 0.0316 µM
[20] = second compound 1 µM, first compound 0.1 µM
[21] = second compound 1 µM, first compound 0.316 µM
[22] = second compound 1 µM, first compound 1 µM
[23] = second compound 1 µM, first compound 3.16 µM
[24] = second compound 1 µM, first compound 10 µM
[25] = second compound 3.16 µM, first compound 0.0316 µM
[26] = second compound 3.16 µM, first compound 0.1 µM
[27] = second compound 3.16 µM, first compound 0.316 µM
[28] = second compound 3.16 µM, first compound 1 µM
[29] = second compound 3.16 µM, first compound 3.16 µM
[30] = second compound 3.16 µM, first compound 10 µM
[31] = second compound 10 µM, first compound 0.0316 µM
[32] = second compound 10 µM, first compound 0.1 µM
[33] = second compound 10 µM, first compound 0.316 µM
[34] = second compound 10 µM, first compound 1 µM
[35] = second compound 10 µM, first compound 3.16 µM
[36] = second compound 10 µM, first compound 10 µM
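Note: spheroids exposed to the agents for one week.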
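Throughout, for viability, T/C: 100% = DMSO vehicle control wells.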

In the case of `C=CC(=O)N1CCN(c2nc(=O)n(-c3c(C)ccnc3C(C)C)c3nc(-c4c(O)cccc4F)c(F)cc23)C(C)C1` (stereo unspecified) + Nc1ccc(C#CCN(C(=O)Cc2ncc(C(F)(F)F)cc2C(F)(F)F)c2ccc(F)cc2)nn1, the IC50 (second compound 0.0316 µM) is reported as over 10 µM, the IC50 (second compound 0.1 µM) is reported as over 10 µM and the IC50 (second compound 0.316 µM) is reported as over 10 µM. For the same compound, the IC50 (second compound 1 µM) was over 10 µM, the IC50 (second compound 3.16 µM) was over 10 µM and the IC50 (second compound 10 µM) was over 10 µM. The viability, T/C [1] was 105%, the viability, T/C [2] was 103% and the viability, T/C [3] was 96.5%. The viability, T/C [4] was 108%, the viability, T/C [5] was 105% and the viability, T/C [6] was 104%. It also gave a viability, T/C [7] of 110%, a viability, T/C [8] of 106% and a viability, T/C [9] of 104%. The viability, T/C [10] was 108%, the viability, T/C [11] was 107% and the viability, T/C [12] was 104%. For the same compound, the viability, T/C [13] was 107%, the viability, T/C [14] was 107% and the viability, T/C [15] was 103%. For the same compound, the viability, T/C [16] was 105%, the viability, T/C [17] was 104% and the viability, T/C [18] was 99.3%. It also gave a viability, T/C [19] of 107%, a viability, T/C [20] of 101% and a viability, T/C [21] of 99.6%. For the same compound, the viability, T/C [22] was 108%, the viability, T/C [23] was 101% and the viability, T/C [24] was 102%. The viability, T/C [25] was 101%, the viability, T/C [26] was 105% and the viability, T/C [27] was 104%. For the same compound, the viability, T/C [28] was 102%, the viability, T/C [29] was 103% and the viability, T/C [30] was 101%. For the same compound, the viability, T/C [31] was 97.3%, the viability, T/C [32] was 105% and the viability, T/C [33] was 105%. The viability, T/C [34] was 93.6%, the viability, T/C [35] was 101% and the viability, T/C [36] was 98.1%.
Work on `CC(C)n1c(=O)n(C)c2cnc3cc(F)c(-c4ccc(OCCCN5CCCCC5)nc4)cc3c21` + Nc1ccc(C#CCN(C(=O)Cc2ncc(C(F)(F)F)cc2C(F)(F)F)c2ccc(F)cc2)nn1 yielded an IC50 (second compound 0.0316 µM) of over 10 µM, an IC50 (second compound 0.1 µM) of over 10 µM and an IC50 (second compound 0.316 µM) of over 10 µM. It also gave an IC50 (second compound 1 µM) of over 10 µM, an IC50 (second compound 3.16 µM) of over 10 µM and an IC50 (second compound 10 µM) of over 10 µM. It also gave a viability, T/C [1] of 101%, a viability, T/C [2] of 99% and a viability, T/C [3] of 99.1%. For the same compound, the viability, T/C [4] was 95.2%, the viability, T/C [5] was 93.9% and the viability, T/C [6] was 86.7%. It also gave a viability, T/C [7] of 107%, a viability, T/C [8] of 103% and a viability, T/C [9] of 104%. The viability, T/C [10] was 95.3%, the viability, T/C [11] was 86.7% and the viability, T/C [12] was 84.7%. It also gave a viability, T/C [13] of 106%, a viability, T/C [14] of 107% and a viability, T/C [15] of 93.9%. The viability, T/C [16] was 101%, the viability, T/C [17] was 93.9% and the viability, T/C [18] was 80.1%. The viability, T/C [19] was 103%, the viability, T/C [20] was 95.9% and the viability, T/C [21] was 99.6%. The viability, T/C [22] was 98.9%, the viability, T/C [23] was 94% and the viability, T/C [24] was 80.4%. The viability, T/C [25] was 96.9%, the viability, T/C [26] was 99.4% and the viability, T/C [27] was 94.6%. The viability, T/C [28] was 98.1%, the viability, T/C [29] was 88.6% and the viability, T/C [30] was 84.1%. The viability, T/C [31] was 98.8%, the viability, T/C [32] was 92.8% and the viability, T/C [33] was 94.9%. For the same compound, the viability, T/C [34] was 90.6%, the viability, T/C [35] was 92.5% and the viability, T/C [36] was 82.1%.
`CC1COCCN1c1cc(-c2ccnn2C)c2ccnc(-c3ccn[nH]3)c2n1` (stereo unspecified) + Nc1ccc(C#CCN(C(=O)Cc2ncc(C(F)(F)F)cc2C(F)(F)F)c2ccc(F)cc2)nn1 gave an IC50 (second compound 0.0316 µM) of 0.68 µM, an IC50 (second compound 0.1 µM) of 0.653 µM and an IC50 (second compound 0.316 µM) of 0.717 µM. The IC50 (second compound 1 µM) was 0.729 µM, the IC50 (second compound 3.16 µM) was 0.593 µM and the IC50 (second compound 10 µM) was 0.449 µM. It also gave a viability, T/C [1] of 107%, a viability, T/C [2] of 102% and a viability, T/C [3] of 72.5%. It also gave a viability, T/C [4] of 38.3%, a viability, T/C [5] of 21% and a viability, T/C [6] of 13.9%. It also gave a viability, T/C [7] of 109%, a viability, T/C [8] of 95.5% and a viability, T/C [9] of 70.7%. For the same compound, the viability, T/C [10] was 40%, the viability, T/C [11] was 14.2% and the viability, T/C [12] was 14.5%. The viability, T/C [13] was 104%, the viability, T/C [14] was 93.1% and the viability, T/C [15] was 72%. For the same compound, the viability, T/C [16] was 42.1%, the viability, T/C [17] was 18.9% and the viability, T/C [18] was 13.8%. For the same compound, the viability, T/C [19] was 102%, the viability, T/C [20] was 92.1% and the viability, T/C [21] was 78.2%. It also gave a viability, T/C [22] of 39.2%, a viability, T/C [23] of 16.8% and a viability, T/C [24] of 10.1%. It also gave a viability, T/C [25] of 101%, a viability, T/C [26] of 89.5% and a viability, T/C [27] of 69.2%. The viability, T/C [28] was 33.8%, the viability, T/C [29] was 19.3% and the viability, T/C [30] was 11.5%. It also gave a viability, T/C [31] of 99.1%, a viability, T/C [32] of 80.2% and a viability, T/C [33] of 64.7%. It also gave a viability, T/C [34] of 23.1%, a viability, T/C [35] of 17.5% and a viability, T/C [36] of 13.2%.
